Here are results for 4 compounds from US7754713B2, “4-benzimidazol-2-ylpyridazin-3-one derivatives” (Aventis Pharma S.A., priority 2004, dated 2010).

Broadly, the IC50 is the point on the concentration scale where inhibition reaches its midpoint. Low values mean higher potency, high ones lower potency. By melting point is commonly meant the temperature of the solid-liquid transition.

The target in one data set is CDK2/Cyclin E (Homo sapiens, UniProt P24941). The experiment in a line: CDK2/Cyclin E kinase flashplate assay (33P incorporation into biotinylated Rb peptide). The data set is classed as biochemical. The following applies: CDK2/Cyclin E 20 nM, ATP 1 μM, Rb peptide 10 μM, 30 minute at 30° C. On the procedure:
Functional Measurements to Ascertain IC50 Values:
A 96-well streptavidin-coated flashplate is used to assay potency of compounds according to formula (I) against CDK2/Cyclin E kinase. To carry out the assay, biotinylated-Rb peptide substrate (Biotin-[…]-OH) is solubilized at 1 mM in kinase buffer (Hepes 50 mM, NaCl 1 mM, MgCl2 5 mM pH 7.5) as a stock solution conserved at −20° C. in aliquots of 110 μl. The day of the experiment, an aliquot of this solution is thawed and diluted to 14.3 μM in kinase buffer, containing 1 mM dithithreitol (DTT) added in the buffer extemporarily.
70 μl of this solution is added in each well of the flashplate in order to achieve a final concentration of 10 μM (100 μl reactionnal volume). […] 10 μl of each of these solutions (or 10 μl of buffer+DTT for controls) are transferred to the testplate wells in order to achieve 10 μM, 3.33 μM, 1.11 μM, 0.37 μM, 0.12 μM, 0.04 μM and 0.01 μM as final concentrations, 1% DMSO (vol/vol). In each well, 10 μl of a solution of a mix of ^33PγATP/ATP are added in order to achieve 1 μM final concentration and a total of 1 μCi. The kinase reaction is initiated by addition of 10 μl of a solution at 200 nM of CDK2/Cyclin E in kinase buffer+DTT (or buffer+DTT for blanks) in order to achieve 20 nM final concentration. After addition of each reagent, the test-plate is shaked. The plates are incubated 30 minute at 30° C. with a shaking at 650 rpm. At the end of the incubation, the plates are washed 3 times with 300 μl of PBS (without calcium and magnesium) per well. The incorporation of ^33P to the peptide is measured by scintillation counting.

Each structure is given as a SMILES string.

At CDK2/Cyclin E, `COC(=O)c1ccc2nc(-c3cc(-c4ccncc4)n[nH]c3=O)[nH]c2c1` [Example 1, Methyl 2-(3-oxo-6-pyridin-4-yl-2,3-dihydropyridazin-4-yl)-1H-benzimidazole-5-carboxylate] had a half-maximal inhibitory concentration (IC50) of 124 nM.
With `O=c1[nH]nc(-c2ccncc2)cc1-c1nc2ccc(Cl)cc2[nH]1` [Example 5, 4-(6-Chloro-1H-benzimidazol-2-yl)-6-pyridin-4-yl-2H-pyridazin-3-one], it took 26 nM to reach half-maximal inhibition at CDK2/Cyclin E (IC50).
The compound `O=c1[nH]nc(-c2ccncc2)cc1-c1nc2ccc(C(F)(F)F)cc2[nH]1` [Example 6, 4-(6-Trifluoromethyl-1H-benzimidazol-2-yl)-6-pyridin-4-yl-2H-pyridazin-3-one] gave an IC50 against CDK2/Cyclin E of 214 nM.
For `CN1CCN(CCCNC(=O)c2ccc3nc(-c4cc(-c5ccncc5)n[nH]c4=O)[nH]c3c2)CC1` [Example 9, 2-(3-Oxo-6-pyridin-4-yl-2,3-dihydropyridazin-4-yl)-1H-benzimidazole-5-carboxylic acid [3-(4-methylpiperazin-1-yl)propyl]amide], the melting point is > 30 °C (dec.).
